In EP0003788B1, “Glycofuranosyl-nitrosourea derivatives, process for their manufacture and their pharmaceutical preparations” (CIBA-GEIGY AG, priority 1978, dated 1979):

Experiments:
[1] = Tolerability and side effects on treatment; assay type: in vivo
Leukämie L 1210 = test: Prolongation of life, leukaemia L 1210 in mice; assay type: in vivo, Mäusen
Procedure: So bewirken sie in Dosen von 25-500 mg/kg i.p. eine starke Hemmung des Tumorwachstums bei Mäusen mit z.B. Ehrlich-Ascites-Karzinom und bei Ratten mit z.B. Walker CaSa 256. Analoge Dosen bewirken eine Lebensverlängerung gegenüber Kontrollen bei Mäusen mit z.B. Leukämie L 1210.

Walker CaSa 256 = test: Inhibition of tumour growth, Walker CaSa 256 in rats; assay type: in vivo, Ratten
Ehrlich-Ascites-Karzinom = test: Inhibition of tumour growth, Ehrlich ascites carcinoma in mice; assay type: in vivo, Mäusen
[2] = Macroscopic organ changes in normal animals after three weeks of peroral treatment; assay type: in vivo

CCO[C@@H]1O[C@H]([C@@H](CNC(=O)N(C)N=O)OC)[C@H](O)[C@H]1O [Äthyl-6-desoxy-5-0-methyl-6-(3-methyl-3-nitroso-ureido)-ß-D-glucofuranosid]
Nebenwirkungen ([1]; also on prolonged treatment): nicht festzustellen
Verträglichkeit ([1]; in vivo): gut
Lebensverlängerung (Leukämie L 1210; 50-250 mg/kg i.p.): > 90%
Lebensverlängerung (Leukämie L 1210; p.o. application): Ähnliche Resultate
Hemmung des Wachstums der genannten Tumoren (Walker CaSa 256; 50-250 mg/kg i.p., rats with Walker CaSa 256): 80-100%
Hemmung des Wachstums der genannten Tumoren (Walker CaSa 256; p.o. application, Walker CaSa 256): Ähnliche Resultate
Hemmung des Wachstums der genannten Tumoren (Ehrlich-Ascites-Karzinom; 50-250 mg/kg i.p., mice with Ehrlich ascites carcinoma): 80-100%
Hemmung des Wachstums der genannten Tumoren (Ehrlich-Ascites-Karzinom; p.o. application, Ehrlich ascites carcinoma): Ähnliche Resultate
Organveränderungen [2]: keine Organveränderungen
